Where two headings read alike, the source gives them in different places.
What was measured:
Type in all cases: cell-based
[1] = tested on: HER3-ss+4aa/Gaussia Luciferase; assay: Dox-Induced Her3-ss-Gluc Assay; conditions: 293FRT/TO cells, read-out: 24 hr Dox Inducible Her3(ss + 4)Gluc 293FRT/TO: Mean IC50
How it was run: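 Stable T-REx cell line carrying a doxycycline-regulated HER3-ss+4aa/Gaussia luciferase insert, plated the day before assay. Compound dilutions in DMSO/media with doxycycline added, then incubated at 37° C., 5% CO2. Stereoisomer mixtures tested where stereochemistry is not drawn.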

[2] = tested on: human multiple myeloma cell line NCI-H929; assay: H929 Cell Viability Assay; conditions: 48 hr, NCI-H929 cells, Celltiter-Glo, read-out: 48 hr H929 Viability Celltiter-Glo: Mean EC50
Procedure: Plates were incubated at 37° C., 5% CO2 for 48 hours. After 48 hours, Celltiter-Glo® (Promega) was added to each well and luciferase signal was quantified using Tecan Infinite M1000 Pro for cell viability determination.
For chemical structures that include one or more stereoisomers, but are illustrated without indicating stereochemistry, the assay data refers to a mixture of stereoisomers.

[3] = tested on: human multiple myeloma cell line U266B1; assay: U266 Cell Viability Assay; conditions: U-266, 48 hr, U266B1 cells, Celltiter-Glo, read-out: 48 hr U266 Viability Celltiter-Glo: Mean EC50
How it was run: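 U266B1 myeloma cells treated with compound dilutions in DMSO/media for 48 h at 37 °C, 5% CO2. Viability read by CellTiter-Glo luminescence. Stereochemically undefined structures were tested as stereoisomer mixtures.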

[4] = tested on: PD1-ss+10aa/Gaussia Luciferase; assay: Dox-Induced PD1-ss-Gluc Assay; conditions: 293FRT/TO cells, read-out: 24 hr Dox Inducible PD1ssGluc 293FRT/TO: Mean IC50
How it was run: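 Stable cell line carrying PD1-ss+10aa/Gaussia luciferase cDNA under T-REx (doxycycline-inducible) control, plated the day before assay. Compound dilutions in DMSO/media containing doxycycline added and incubated at 37° C, 5% CO2. Undefined stereocentres: data refer to stereoisomer mixtures.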

[5] = tested on: IL-2-FL/Gaussia Luciferase; assay: Dox Induced IL2-FL-Gluc Assay; conditions: 293FRT/TO cells, read-out: 24 hr Dox Inducible IL2FLGIuc 293FRT/TO: Mean IC50
How it was run: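 Stable T-REx cell line expressing doxycycline-inducible IL-2-FL/Gaussia luciferase cDNA, plated the day before assay. Compound dilutions in DMSO/media containing doxycycline added and incubated at 37° C., 5% CO2. Unspecified stereochemistry means data refer to a stereoisomer mixture.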

[6] = tested on: TNFα-FL/Gaussia Luciferase; assay: Dox Induced TNFα-FL-Gluc Assay; conditions: 293FRT/TO cells, read-out: 24 hr Dox Inducible TNFaFLGluc 293FRT/TO: Mean IC50
How it was run: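 A stable T-REx cell line carrying doxycycline-inducible TNFα-FL/Gaussia luciferase was plated the day before assay. Compound dilutions in DMSO/media containing doxycycline were then added and incubated at 37° C, 5% CO2.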

[7] = 24 hr doxycycline induction, Gaussia luciferase signal

IC50 [1, 7] [nM] | EC50 [2] [nM] | EC50 [3] [nM] | IC50 [4, 7] [nM] | IC50 [5, 7] [nM] | IC50 [6, 7] [nM] | IC50 ([1]; 24 hr, doxycycline-induced) [nM] | IC50 ([4]; 24 hr, doxycycline-induced) [nM] | IC50 ([5]; 24 hr, doxycycline-induced) [nM] | IC50 ([6]; 24 hr, doxycycline-induced) [nM] | Structure (SMILES)
199 | 14800 | > 25000 | 178 | 136 | 2360 | – | – | – | – | CC(C)OC(C)(C)c1csc(NC(=O)c2cccn2CCCc2ccncc2F)n1 [Compound A243, 1-(3-(3-fluoropyridin-4-yl)propyl)-N-(4-(2-isopropoxypropan-2-yl)thiazol-2-yl)-1H-pyrrole-2-carboxamide]
> 25000 | > 25000 | > 25000 | > 25000 | > 25000 | > 25000 | – | – | – | – | COc1cc(Cn2cccc2C(=O)Nc2nc(C(C)(C)OC(C)C)cs2)ccn1 [Compound A125, N-(4-(2-isopropoxypropan-2-yl)thiazol-2-yl)-1-((2-methoxypyridin-4-yl)methyl)-1H-pyrrole-2-carboxamide]
447 | > 25000 | > 25000 | 290 | 429 | 5470 | – | – | – | – | CCC(C)c1csc(NC(=O)c2cccn2Cc2ccncc2)n1 (stereo not drawn) [Compound A23]
189 | 4100 | 4130 | 74 | 554 | 1530 | – | – | – | – | CO[C@H]1CC[C@@H](/C=C/c2csc(NC(=O)c3cccn3Cc3ccncc3)n2)CC1 [Compound A254, N-(4-(2-((1s,4s)-4-methoxycyclohexyl)vinyl)thiazol-2-yl)-1-(pyridin-4-ylmethyl)-1H-pyrrole-2-carboxamide]
1640 | > 25000 | > 25000 | 965 | 869 | 13800 | – | – | – | – | CC(C)(C)c1csc(NC(=O)c2cccn2Cc2ccncc2)n1 [Compound A45, N-(4-(tert-butyl)thiazol-2-yl)-1-(pyridin-4-ylmethyl)-1H-pyrrole-2-carboxamide]
3240 | > 25000 | > 25000 | 1880 | 2080 | > 25000 | – | – | – | – | CC1(c2csc(NC(=O)c3cccn3Cc3ccncc3)n2)CC1 [Compound A67, N-(4-(1-methylcyclopropyl)thiazol-2-yl)-1-(pyridin-4-ylmethyl)-1H-pyrrole-2-carboxamide]
6700 | > 25000 | > 25000 | 4560 | 6450 | > 25000 | – | – | – | – | CC(C)OC(C)(C)c1csc(NC(=O)c2cccn2Cc2ccncc2C(F)(F)F)n1 [Compound A214, N-(4-(2-isopropoxypropan-2-yl)thiazol-2-yl)-1-((3-(trifluoromethyl)pyridin-4-yl)methyl)-1H-pyrrole-2-carboxamide]
545 | 19900 | 14400 | 163 | 881 | 1410 | – | – | – | – | O=C(Nc1nc(C2=CCC(c3ccccc3)CC2)cs1)c1cccn1Cc1ccncc1 (stereo not drawn) [Compound A249, 1-(pyridin-4-ylmethyl)-N-(4-(1,2,3,6-tetrahydro-[1,1-biphenyl]-4-yl)thiazol-2-yl)-1H-pyrrole-2-carboxamide]
– | > 25000 | > 25000 | – | – | – | 1050 | 499 | 939 | 4440 | O=C(Nc1nc(C2=CC(c3ccccc3)CCC2)cs1)c1cccn1Cc1ccncc1 (stereo not drawn) [Compound A294]
174 | 3890 | 7870 | 58 | 165 | 420 | – | – | – | – | CC(OC(C)(C)c1csc(NC(=O)c2cccn2Cc2ccncc2)n1)c1ccccc1Cl (stereo not drawn) [Compound A8, N-(4-(2-(1-(2-chlorophenyl)ethoxy)propan-2-yl)thiazol-2-yl)-1-(pyridin-4-ylmethyl)-1H-pyrrole-2-carboxamide]
– | 5000 | > 25000 | – | – | – | 201 | 59 | 126 | 308 | O=C(Nc1nc([C@H]2C[C@H](O)CN2c2ccccc2)cs1)c1cccn1Cc1ccncc1 [Compound A326]
